Consider three compounds from ChEMBL document CHEMBL1146558, “Constituents from the stems of Aristolochia manshuriensis” (J Nat Prod, 2003).

The structures appear in SMILES notation. In brackets after ≈: the same amount, converted by molar mass. Activity calls are given as the source filed them. The calls are words filed in the database; no cut-off is given here.

One series concerns MCF7. The experiment in a line: Cytotoxicity against human MCF7 cells after 3 days by SRB assay. The class given is functional, cell-based. (In general: Sulforhodamine B stains cellular protein and so reports cell mass.)
Another series concerns A549. Put plainly: Cytotoxicity against human A549 cells after 3 days by SRB assay. The class given is functional, cell-based.
For series [1], the system named is Human immunodeficiency virus. Put plainly: Antiviral activity against HIV infected in human H9 cells. It counts as functional, organism-based. The conditions noted are these: Human immunodeficiency virus 1, H9.
The next series concerns H9. The experiment in a line: Cytotoxicity against human H9 cells. The class given is cell-based.
Series [2] can be described thus: Therapeutic index, ratio of IC50 for human H9 cells to EC50 for HIV. The class given is cell-based. The settings on record: read-out: Ratio IC50/EC50.

Turning to `O=C(O)c1cc2c(c3c1ccc1ccccc13)OCO2`, the outcome in the series with MCF7 and in the series with A549 was inactive.

For orientation: EC50 means the concentration giving half of the maximal effect. A high value points to weaker potency. The term IC50 denotes the concentration that inhibits the measured activity by half. As for `CC1=C2OC(C)(C)c3c(O)cc(C)c(c32)C(=O)C1=O` [DEHYDROOXOPEREZINONE], the EC50 in series [1] came to 17.5 µg/mL (≈ 67.8 µM). Further, the IC50 in the series on H9 is 25.1 µg/mL (≈ 97.2 µM). Also, in series [2], the selectivity ratio came out at 1.43. For the same compound, the outcome in the series on MCF7 and in the series on A549 was inactive.

In the case of `COc1cc(/C=C/C(=O)NCCc2ccc(O[C@@H]3O[C@H](CO)[C@@H](O)[C@H](O)[C@H]3O)c(OC)c2)ccc1O[C@@H]1O[C@H](CO)[C@@H](O)[C@H](O)[C@H]1O`, the result with MCF7 and in the series with A549 was inactive.
